# Data reported in article PMC8829087 (The Journal of Biological Chemistry, 2021).
# Columns and labels:
# GLP-1R G168^1.63S = conditions: cited from earlier work
# Excerpt: (§1) Previous in vivo characterizations of missense variants in the GLP-1R and GIPR have pointed to associations between receptor impairments and clinical phenotypes. One example is the more frequently occurring variant of GIPR E354^6.53Q (gnomAD MAF: 0.2). […] Heterozygous carriers of the rare missense variant T14 ...
# GLP-1R T149^1.44M = conditions: cited from earlier work
# Excerpt: as §1
# [1] = tested on: GLP-1R variants P7^ECDL, R44^ECDH and L260^ICL2P; conditions: cited from earlier work
# Excerpt: as §1
# [2] = tested on: patients with type 2 diabetes, GLP-1R G168^1.63S carriers; conditions: cited from earlier work
# Excerpt: as §1
# [3] = biological target: human glucagon receptor missense variant R225^3.30H (human) (UniProt P47871)
# Sequence of UniProt P47871 (P47871 other isoform, or with tags, fused parts or gaps mutant): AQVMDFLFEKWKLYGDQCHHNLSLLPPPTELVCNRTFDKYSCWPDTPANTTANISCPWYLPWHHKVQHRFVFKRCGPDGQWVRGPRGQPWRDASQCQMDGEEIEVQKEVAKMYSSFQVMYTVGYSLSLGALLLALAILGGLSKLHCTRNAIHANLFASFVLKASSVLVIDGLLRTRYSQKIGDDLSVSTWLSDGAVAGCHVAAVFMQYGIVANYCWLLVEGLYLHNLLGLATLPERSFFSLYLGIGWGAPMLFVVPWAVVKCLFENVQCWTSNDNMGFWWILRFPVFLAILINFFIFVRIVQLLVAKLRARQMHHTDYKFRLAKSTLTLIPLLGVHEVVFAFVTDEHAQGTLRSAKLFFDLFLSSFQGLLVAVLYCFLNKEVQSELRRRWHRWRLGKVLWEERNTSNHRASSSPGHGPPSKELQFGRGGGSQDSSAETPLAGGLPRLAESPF
substance,measurement,setting,value
glucagon-like peptide-1 [GLP-1],receptor signaling and binding affinity of GLP-1,GLP-1R G168^1.63S,preserved receptor signaling and binding affinity
same,binding capacity of GLP-1,GLP-1R T149^1.44M,lower binding capacity
same,receptor signaling,GLP-1R T149^1.44M,impaired receptor signaling capabilities
same,GLP-1 binding and receptor signaling,[1],wildtype-like GLP-1 binding and receptor signaling
"liraglutide: treatment with liraglutide of patients with type 2 diabetes (HAEGTFTSDVSSYLEGQAAKEFIAWLVRGRG; chains of the INN, looked up)",weight loss and fat mass,[2],improved weight loss and lower fat mass
β-arrestin-2 (Rluc8-Arr3-Sp2) (from UniProt P32121 1-409) (natural protein),"potency (EC50) of glucagon in β-arrestin-2 recruitment, BRET in HEK293, fold decrease against wildtype",[3],6 fold
